For 28 compounds, IC50 results are on record in patent US20250346592A1 (Celgene Corporation, priority 2022, published 2025).

Each structure is given as a SMILES string.

Chain of hPAD4 enzyme (Q9UM07 whole entry): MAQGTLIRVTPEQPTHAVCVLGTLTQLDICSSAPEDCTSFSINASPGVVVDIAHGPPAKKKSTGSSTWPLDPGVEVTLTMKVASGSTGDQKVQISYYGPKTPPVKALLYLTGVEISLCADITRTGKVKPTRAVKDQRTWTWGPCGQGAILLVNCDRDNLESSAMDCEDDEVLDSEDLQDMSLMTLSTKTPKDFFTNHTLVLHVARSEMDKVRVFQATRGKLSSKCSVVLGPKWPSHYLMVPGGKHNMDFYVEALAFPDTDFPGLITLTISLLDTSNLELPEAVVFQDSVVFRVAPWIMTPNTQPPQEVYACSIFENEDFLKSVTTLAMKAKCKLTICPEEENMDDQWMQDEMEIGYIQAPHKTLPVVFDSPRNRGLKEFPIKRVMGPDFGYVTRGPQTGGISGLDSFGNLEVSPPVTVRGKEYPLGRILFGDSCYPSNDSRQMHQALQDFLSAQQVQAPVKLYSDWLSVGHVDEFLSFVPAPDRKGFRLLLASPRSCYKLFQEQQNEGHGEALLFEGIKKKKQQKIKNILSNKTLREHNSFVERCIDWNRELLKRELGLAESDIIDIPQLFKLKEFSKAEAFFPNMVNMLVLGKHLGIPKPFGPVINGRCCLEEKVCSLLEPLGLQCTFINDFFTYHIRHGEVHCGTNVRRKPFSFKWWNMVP

For this experiment, the target named is hPAD4 enzyme (Homo sapiens (Human), UniProt Q9UM07). Description: RFMS2 assay (RapidFire mass spectrometry, TSTGGRQGSHH peptide substrate). The experiment is classed as biochemical. Conditions: 35 nM recombinant human PAD4, 500 μM TSTGGRQGSHH peptide, 30 minutes at room temperature; read-out: RFMS 2 IC50. As for the experimental part:
Stock compounds were dissolved and stored in 100% DMSO. Compound solutions were prepared via serial dilution at 3-fold intervals in DMSO with top compound concentration at 20 μM in each assay. 0.25 μl of compound solution was transferred from the compound plate to the assay plate by using an acoustic dispenser.
• Total reaction volume: 25 μl • Assay buffer: […] pH 7.4, 200 mM NaCl, 2 mM CaCl2, 5 mM DTT • 35 nM recombinant human PAD4 • 500 μM TSTGGRQGSHH peptide • 1.2% DMSO • Stop solution: 10% formic acid
Reaction mixtures were incubated at room temperature for 30 minutes. 10 μl each of the reaction mixtures was then mixed with 40 μl of 10% formic acid in a microtiter plate. The plate was frozen at −80° C. before shipping out on dry ice for RapidFire mass spectroscopy analysis.
Thawed samples were loaded onto the Rapid Fire 300 system (Agilent) wherein they were first sipped for 250 ms and then loaded onto a Agilent “C” (C18) cartridge using a mobile phase of water containing 0.09% formic acid/0.01% trifluoroacetic acid for 3000 ms desalting flowing at a rate of 1.5 ml/min. Once the samples were loaded and washed, a mobile phase of acetonitrile containing 0.09% formic acid/0.01% trifluoroacetic acid was used to elute the samples directly onto a Sciex API4000 triple quadrupole mass spectrometer for 3000 ms at a flow rate of 1.25 ml/min.
MRM transitions for substrate and product were monitored in positive ESI mode at m/z=562.3/969.7 and m/z=562.8/541.3 respectively. The dwell time for each transition was set at 100 ms, and the ESI voltage was used at 5500 with a source temperature of 650° C. Extracted ion peaks for each transition were integrated using the Rapid Fire Integrator software.
Compounds having an activity designated as “A” provided an IC50≤10 nM; compounds having an activity designated as “B” provided an IC50 11-100 nM; compounds having an activity designated as “C” provided an IC50 101-500 nM; compounds having an activity designated as “D” provided an IC50 501-1000 nM; compounds having an activity designated as “E” provided an IC50>1000 nM.
As a reminder, the IC50 is the midpoint of a concentration-inhibition curve. Take `COCC(C)c1ccc2cc(-c3nc4cc5c(cc4n3C)CCN(C[C@@H](C)N)C5=O)n(CC3CC3)c2c1` (single isomer, unassigned) [Example 40]: the IC50 was > 1000 nM. Regarding `COCC(C)c1ccc2cc(-c3nc4cc5c(cc4n3C)CCN(C[C@@H](C)N)C5=O)n(CC3CC3)c2c1` (single isomer, unassigned) [Example 41], the half-inhibitory concentration (IC50) fell in the range of 101 to 500 nM. The result for `COCC(C)n1c(-c2nc3cc4c(cc3n2C)CCN(C[C@H](N)CF)C4=O)cc2cccc(OC)c21` (single isomer, unassigned) [Example 123a] reads > 1000 nM; that for `COc1cccc2cc(-c3nc4cc5c(cc4n3C)CCN(C[C@H](N)CF)C5=O)n(CC(C)OC)c12` (single isomer, unassigned) [Example 130], 101 to 500 nM. The result for `COc1cccc2cc(-c3nc4cc5c(cc4n3C)CCN(C[C@H](N)CF)C5=O)n(CC(C)OC)c12` (single isomer, unassigned) [Example 131] reads 501 to 1000 nM; that for `Cn1c(-c2cc3cccc(OCCC4CNC(=O)C4)c3n2CC2CC2)nc2cc3c(cc21)CCN(C[C@H](N)CF)C3=O` (single isomer, unassigned) [Example 178], 101 to 500 nM. The result for `Cn1c(-c2cc3cccc(OCCC4CNC(=O)C4)c3n2CC2CC2)nc2cc3c(cc21)CCN(C[C@H](N)CF)C3=O` (single isomer, unassigned) [Example 179] reads 101 to 500 nM; that for `Cn1c(-c2cc3cccc(OCC4(C)CNC(=O)C4)c3n2CC2CC2)nc2cc3c(cc21)CCN(C[C@H](N)CF)C3=O` (single isomer, unassigned) [Example 220], 501 to 1000 nM; that for `Cn1c(-c2cc3cccc(OCC4(C)CNC(=O)C4)c3n2CC2CC2)nc2cc3c(cc21)CCN(C[C@H](N)CF)C3=O` (single isomer, unassigned) [Example 221], 101 to 500 nM. Consider `CCN[C@H](C)CN1CCc2cc3c(cc2C1=O)nc(-c1cc2ccccc2n1CC1CC1)n3C` [Example 2, (R)-2-(1-(cyclopropylmethyl)-1H-indol-2-yl)-6-(2-(ethylamino)propyl)-1-methyl-1,6,7,8-tetrahydro-5H-imidazo[4,5-g]isoquinolin-5-one], for which the IC50 lay in the range of 501 to 1000 nM. In the case of `CCCN[C@H](C)CN1CCc2cc3c(cc2C1=O)nc(-c1cc2ccccc2n1CC1CC1)n3C` [Example 4, (R)-2-(1-(cyclopropylmethyl)-1H-indol-2-yl)-1-methyl-6-(2-(propylamino)propyl)-1,6,7,8-tetrahydro-5H-imidazo[4,5-g]isoquinolin-5-one], the half-inhibitory concentration (IC50) was > 1000 nM. As to `Cn1c(-c2cc3ccccc3n2CC2CC2)nc2cc3c(cc21)CCN(CC(N)CC(F)(F)F)C3=O` (stereo not shown) [Example 7, 6-(2-amino-4,4,4-trifluorobutyl)-2-(1-(cyclopropylmethyl)-1H-indol-2-yl)-1-methyl-1,6,7,8-tetrahydro-5H-imidazo[4,5-g]isoquinolin-5-one], the concentration for half-maximal inhibition (IC50) was > 1000 nM. With `Cn1c(-c2cc3ccccc3n2CC2CC2)nc2cc3c(cc21)CCN(CC1CNCCN1)C3=O` (stereo not shown) [Example 8, 2-(1-(cyclopropylmethyl)-1H-indol-2-yl)-1-methyl-6-(piperazin-2-ylmethyl)-1,6,7,8-tetrahydro-5H-imidazo[4,5-g]isoquinolin-5-one] the figure was > 1000 nM; with `Cc1ccc2cc(-c3nc4cc5c(cc4n3C)CCN(C[C@@H](C)N)C5=O)n(CC3CC3)c2c1C` [Example 16, (R)-6-(2-aminopropyl)-2-(1-(cyclopropylmethyl)-6,7-dimethyl-1H-indol-2-yl)-1-methyl-1,6,7,8-tetrahydro-5H-imidazo[4,5-g]isoquinolin-5-one], 101 to 500 nM; with `Cc1cccc2cc(-c3nc4cc5c(cc4n3C)CCN(C[C@@H](C)N)C5=O)n(CC3CC3)c12` [Example 17, (R)-6-(2-aminopropyl)-2-(1-(cyclopropylmethyl)-7-methyl-1H-indol-2-yl)-1-methyl-1,6,7,8-tetrahydro-5H-imidazo[4,5-g]isoquinolin-5-one], 101 to 500 nM.

As to `COc1ccc2cc(-c3nc4cc5c(cc4n3C)CCN(C[C@@H](C)N)C5=O)n(CC3CC3)c2c1` [Example 18, (R)-6-(2-aminopropyl)-2-(1-(cyclopropylmethyl)-6-methoxy-1H-indol-2-yl)-1-methyl-1,6,7,8-tetrahydro-5H-imidazo[4,5-g]isoquinolin-5-one], the IC50 is 101 to 500 nM. Turning to `CC(C)c1cccc2cc(-c3nc4cc5c(cc4n3C)CCN(C[C@@H](C)N)C5=O)n(CC3CC3)c12` [Example 19, (R)-6-(2-aminopropyl)-2-(1-(cyclopropylmethyl)-7-isopropyl-1H-indol-2-yl)-1-methyl-1,6,7,8-tetrahydro-5H-imidazo[4,5-g]isoquinolin-5-one], the IC50 fell in the range of 101 to 500 nM.

Take `C[C@@H](N)CN1CCc2cc3c(cc2C1=O)nc(-c1cc2ccc(C(F)(F)F)cc2n1CC1CC1)n3C` [Example 20, (R)-6-(2-aminopropyl)-2-(1-(cyclopropylmethyl)-6-(trifluoromethyl)-1H-indol-2-yl)-1-methyl-1,6,7,8-tetrahydro-5H-imidazo[4,5-g]isoquinolin-5-one]: the IC50 lay in the range of 101 to 500 nM. `C[C@@H](N)CN1CCc2cc3c(cc2C1=O)nc(-c1cc2ccc(F)nc2n1CC1CC1)n3C` [Example 21, (R)-6-(2-aminopropyl)-2-(1-(cyclopropylmethyl)-6-fluoro-1H-pyrrolo[2,3-b]pyridin-2-yl)-1-methyl-1,6,7,8-tetrahydro-5H-imidazo[4,5-g]soquinolin-5-one]: the IC50 was 101 to 500 nM. As for `C[C@@H](N)CN1CCc2cc3c(cc2C1=O)nc(-c1cc2ccnc(Cl)c2n1CC1CC1)n3C` [Example 22, (R)-6-(2-aminopropyl)-2-(7-chloro-1-(cyclopropylmethyl)-1H-pyrrolo[2,3-c]pyridin-2-yl)-1-methyl-1,6,7,8-tetrahydro-5H-imidazo[4,5-g]isoquinolin-5-one], the IC50 was > 1000 nM. The result for `Cc1c(-c2nc3cc4c(cc3n2C)CCN(C[C@@H](C)N)C4=O)n(CC2CC2)c2ccccc12` [Example 23, (R)-6-(2-aminopropyl)-2-(1-(cyclopropylmethyl)-3-methyl-1H-indol-2-yl)-1-methyl-1,6,7,8-tetrahydro-5H-imidazo[4,5-g]isoquinolin-5-one] reads > 1000 nM; that for `C[C@@H](N)CN1CCc2cc3c(cc2C1=O)nc(-c1cc2ccncc2n1CC1CC1)n3C` [Example 24, (R)-6-(2-aminopropyl)-2-(1-(cyclopropylmethyl)-1H-pyrrolo[2,3-c]pyridin-2-yl)-1-methyl-1,6,7,8-tetrahydro-5H-imidazo[4,5-g]isoquinolin-5-one], > 1000 nM. On to `C[C@@H](N)CN1CCc2cc3c(cc2C1=O)nc(-c1cc2ccc(Cl)cc2n1CC1CC1)n3C` [Example 25, (R)-6-(2-aminopropyl)-2-(6-chloro-1-(cyclopropylmethyl)-1H-indol-2-yl)-1-methyl-1,6,7,8-tetrahydro-5H-imidazo[4,5-g]isoquinolin-5-one], for which the concentration for half-maximal inhibition (IC50) is 101 to 500 nM. The result for `Cc1ccc2c(c1)cc(-c1nc3cc4c(cc3n1C)CCN(C[C@@H](C)N)C4=O)n2CC1CC1` [Example 26, (R)-6-(2-aminopropyl)-2-(1-(cyclopropylmethyl)-5-methyl-1H-indol-2-yl)-1-methyl-1,6,7,8-tetrahydro-5H-imidazo[4,5-g]isoquinolin-5-one] reads > 1000 nM. With `C[C@@H](N)CN1CCc2cc3c(cc2C1=O)nc(-c1cc2cccc(C#N)c2n1CC1CC1)n3C` [Example 27, (R)-2-(6-(2-aminopropyl)-1-methyl-5-oxo-5,6,7,8-tetrahydro-1H-imidazo[4,5-g]isoquinolin-2-yl)-1-(cyclopropylmethyl)-1H-indole-7-carbonitrile] the figure was 501 to 1000 nM; with `CCc1cccc2cc(-c3nc4cc5c(cc4n3C)CCN(C[C@@H](C)N)C5=O)n(CC3CC3)c12` [Example 28, (R)-6-(2-aminopropyl)-2-(1-(cyclopropylmethyl)-7-ethyl-1H-indol-2-yl)-1-methyl-1,6,7,8-tetrahydro-5H-imidazo[4,5-g]isoquinolin-5-one], 101 to 500 nM.

For the compound `Cc1ccc2cc(-c3nc4cc5c(cc4n3C)CCN(C[C@@H](C)N)C5=O)n(CC3CC3)c2c1` [Example 29, (R)-6-(2-aminopropyl)-2-(1-(cyclopropylmethyl)-6-methyl-1H-indol-2-yl)-1-methyl-1,6,7,8-tetrahydro-5H-imidazo[4,5-g]isoquinolin-5-one], the half-maximal inhibitory concentration (IC50) was in the range of 101 to 500 nM. With `C[C@@H](N)CN1CCc2cc3c(cc2C1=O)nc(-c1cc2cccc(F)c2n1CC1CC1)n3C` [Example 30, (R)-6-(2-aminopropyl)-2-(1-(cyclopropylmethyl)-7-fluoro-1H-indol-2-yl)-1-methyl-1,6,7,8-tetrahydro-5H-imidazo[4,5-g]isoquinolin-5-one] the figure was 101 to 500 nM.
